Measured values: patent US11066396B2 (priority 2016, dated 2021)

What was measured:
[1] = target: HDAC8 (Homo sapiens (Human), UniProt Q9BY41); details: read-out: HDAC8 IC50
[2] = target: HDAC5 (Homo sapiens (Human), UniProt Q9UQL6); details: read-out: HDAC5 IC50
[3] = target: HDAC1 (Homo sapiens (Human), UniProt Q13547); details: read-out: HDAC1 IC50
HDAC1, sequence (Q13547 whole entry): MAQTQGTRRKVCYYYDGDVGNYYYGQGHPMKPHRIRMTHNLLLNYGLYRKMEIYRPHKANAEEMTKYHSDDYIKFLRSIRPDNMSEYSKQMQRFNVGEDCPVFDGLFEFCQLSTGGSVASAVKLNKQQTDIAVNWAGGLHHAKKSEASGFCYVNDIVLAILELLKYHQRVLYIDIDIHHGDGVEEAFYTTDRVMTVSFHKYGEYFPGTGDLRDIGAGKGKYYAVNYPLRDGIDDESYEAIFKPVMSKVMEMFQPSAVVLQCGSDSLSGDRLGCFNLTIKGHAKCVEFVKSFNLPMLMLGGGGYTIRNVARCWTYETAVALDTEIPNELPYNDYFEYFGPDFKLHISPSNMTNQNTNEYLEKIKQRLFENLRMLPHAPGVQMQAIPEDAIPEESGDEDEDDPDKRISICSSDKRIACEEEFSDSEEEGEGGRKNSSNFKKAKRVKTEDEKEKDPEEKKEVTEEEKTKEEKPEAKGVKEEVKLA
Method: Assay protocol: In brief, compounds were titrated in 100% DMSO via accoustic dispensing directly to the assay plate using the ECHO 550 [Labcyte]. HDAC enzymes at the concentrations indicated above were added in assay buffer to the assay plates containing the compounds using a Combi [Thermo Scientific]. The wells were mixed, and the plates were allowed to pre-incubate at ambient temperature for 3 h. After the 3 h, the appropriate substrate, at the concentrations indicated above, was added to the wells using a Combi. The wells were mixed, and the plates were allowed to incubate at ambient temperature for 1 h. After the 1 h, the appropriate Developer/stop solution was added to the wells using a Combi. The wells were mixed, and the plates were allowed to incubate at ambient temperature for 1 h. […] Data were analyzed using 4P curve fitting with Activity Base [IDBS] software.

HDAC8, sequence (Q9BY41 whole entry): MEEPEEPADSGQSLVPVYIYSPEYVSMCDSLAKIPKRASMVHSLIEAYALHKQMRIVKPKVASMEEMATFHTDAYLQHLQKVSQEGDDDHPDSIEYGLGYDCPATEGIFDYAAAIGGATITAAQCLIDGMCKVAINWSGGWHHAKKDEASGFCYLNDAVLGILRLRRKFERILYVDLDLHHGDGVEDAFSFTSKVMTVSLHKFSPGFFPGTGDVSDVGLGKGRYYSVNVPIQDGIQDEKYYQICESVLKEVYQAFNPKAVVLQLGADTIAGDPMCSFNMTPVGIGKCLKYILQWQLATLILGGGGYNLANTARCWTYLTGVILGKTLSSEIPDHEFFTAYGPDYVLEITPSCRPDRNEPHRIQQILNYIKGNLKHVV
HDAC5, sequence (Q9UQL6 656-1122): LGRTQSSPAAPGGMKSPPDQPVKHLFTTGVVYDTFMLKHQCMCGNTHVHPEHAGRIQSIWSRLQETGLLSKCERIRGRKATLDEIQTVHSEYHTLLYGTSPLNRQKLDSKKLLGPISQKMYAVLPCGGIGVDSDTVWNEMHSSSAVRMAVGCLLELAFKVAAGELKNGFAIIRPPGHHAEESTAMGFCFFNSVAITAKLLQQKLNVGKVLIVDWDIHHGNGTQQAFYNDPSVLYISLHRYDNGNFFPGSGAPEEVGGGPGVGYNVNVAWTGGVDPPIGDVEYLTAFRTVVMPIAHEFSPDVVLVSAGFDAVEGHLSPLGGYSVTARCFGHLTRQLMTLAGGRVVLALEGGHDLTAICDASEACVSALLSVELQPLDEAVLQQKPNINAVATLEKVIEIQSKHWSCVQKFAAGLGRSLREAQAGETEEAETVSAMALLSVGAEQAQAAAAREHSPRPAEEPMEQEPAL

SMILES	IC50 [1]	IC50 [2]	IC50 [3]
O=C(NC1CCOCC1)OCc1ccc(-c2noc(C(F)(F)F)n2)cn1 [Example 195, {5-[5-(trifluoromethyl)-1,2,4-oxadiazol-3-yl]pyridin-2-yl}methyl oxan-4-ylcarbamate]	1600 nM	660 nM	780 nM
Cc1nc(Cl)cnc1COc1ccc(-c2noc(C(F)(F)F)n2)cn1 [Example 184, 3-(6-((5-Chloro-3-methylpyrazin-2-yl)methoxy)pyridin-3-yl)-5-(trifluoromethyl)-1,2,4-oxadiazole]	2700 nM	1100 nM	2300 nM
O=C(OCCOCCCl)[C@@H]1CCC(=O)N1c1ccc(-c2noc(C(F)(F)F)n2)c(F)c1 [Example 197, 2-(2-chloroethoxy)ethyl 1-{3-fluoro-4-[5-(trifluoromethyl)-1,2,4-oxadiazol-3-yl]phenyl}-5-oxo-L-prolinate]	110 nM	50 nM	1200 nM
Cc1cncnc1OCc1ccc(-c2noc(C(F)(F)F)n2)c(F)c1 [Example 244, 4-({3-fluoro-4-[5-(trifluoromethyl)-1,2,4-oxadiazol-3-yl]phenyl}methoxy)-5-methylpyrimidine]	1900 nM	130 nM	3300 nM
CS(=O)(=O)NC(Cc1ccc(-c2noc(C(F)(F)F)n2)cn1)c1cccc(C(F)(F)F)c1 (stereo not drawn) [Example 178, N-(2-(5-(5-(Trifluoromethyl)-1,2,4-oxadiazol-3-yl)pyridin-2-yl)-1-(3-(trifluoromethyl)phenyl)ethyl)methanesulfonamide]	3700 nM	320 nM	410 nM
O=C(Cn1cncn1)N(Cc1ccc(-c2noc(C(F)(F)F)n2)cc1)c1cccc(C(F)(F)F)c1 [Example 68, 2-(1H-1,2,4-triazol-1-yl)-N-(4-(5-(trifluoromethyl)-1,2,4-oxadiazol-3-yl)benzyl)-N-(3-(trifluoromethyl)phenyl)acetamide]	2000 nM	500 nM	690 nM
FC(F)(F)c1nc(-c2ccc(N3CCOCC3c3ccccc3Cl)nc2)no1 (stereo not drawn) [Example 130, 3-(2-chlorophenyl)-4-(5-(5-(trifluoromethyl)-1,2,4-oxadiazol-3-yl)pyridin-2-yl)morpholine]	1500 nM	74 nM	480 nM
CC(=O)NC(Cc1ccc(-c2noc(C(F)(F)F)n2)cn1)c1cccc(C(F)(F)F)c1 (stereo not drawn) [Example 177, N-(2-(5-(5-(Trifluoromethyl)-1,2,4-oxadiazol-3-yl)pyridin-2-yl)-1-(3-(trifluoromethyl)phenyl)ethyl)acetamide]	4500 nM	420 nM	530 nM
O=C(C1CCS(=O)(=O)CC1)N(Cc1ccc(-c2noc(C(F)(F)F)n2)nn1)c1cccc(C(F)(F)F)c1 [Example 173, N-((6-(5-(Trifluoromethyl)-1,2,4-oxadiazol-3-yl)pyridazin-3-yl)methyl)-N′-(3-(trifluoromethyl)phenyl)tetrahydro-2H-thiopyran-4-carboxamide 1,1-dioxide]	6300 nM	8300 nM	1100 nM
Fc1cc(COc2cc(C(F)F)ncn2)ccc1-c1noc(C(F)(F)F)n1 [Example 242, 4-(difluoromethyl)-6-({3-fluoro-4-[5-(trifluoromethyl)-1,2,4-oxadiazol-3-yl]phenyl}methoxy)pyrimidine]	1700 nM	110 nM	2900 nM
Fc1cc(CNc2ccc3ccncc3c2)ccc1-c1noc(C(F)(F)F)n1 [Example 254, N-({3-fluoro-4-[5-(trifluoromethyl)-1,2,4-oxadiazol-3-yl]phenyl}methyl)isoquinolin-7-amine]	45000 nM	140 nM	1600 nM
CC1(C(=O)NC(Cc2ccc(-c3noc(C(F)(F)F)n3)cn2)c2cccc(C(F)(F)F)c2)COC1 (racemic) [Example 482, 3-methyl-N-(2-{5-[5-(trifluoromethyl)-1,2,4-oxadiazol-3-yl]pyridin-2-yl}-1-[3-(trifluoromethyl)phenyl]ethyl)oxetane-3-carboxamide]	8500 nM	480 nM	790 nM
O=C1CCC(c2ccccc2)N1c1ccc(-c2noc(C(F)(F)F)n2)cc1F (stereo not drawn) [Example 42, 1-(2-fluoro-4-(5-(trifluoromethyl)-1,2,4-oxadiazol-3-yl)phenyl)-5-phenylpyrrolidin-2-one]	1400 nM	27 nM	530 nM
COc1cnnc(OCc2ccc(-c3noc(C(F)(F)F)n3)c(F)c2)c1 [Example 239, 3-({3-fluoro-4-[5-(trifluoromethyl)-1,2,4-oxadiazol-3-yl]phenyl}methoxy)-5-methoxypyridazine]	2400 nM	190 nM	5900 nM
Cn1c([C@@H]2CCC(=O)N2c2ccc(-c3noc(C(F)(F)F)n3)cc2)nc2ccccc21 [Example 108, (S)-5-(1-methyl-1H-benzo[d]imidazol-2-yl)-1-(4-(5-(trifluoromethyl)-1,2,4-oxadiazol-3-yl)phenyl)pyrrolidin-2-one]	2900 nM	120 nM	2000 nM
FC(F)(F)c1nc(-c2ccc(N3CCOCC3c3cccnc3)nc2)no1 (stereo not drawn) [Example 133, 3-(pyridin-3-yl)-4-(5-(5-(trifluoromethyl)-1,2,4-oxadiazol-3-yl)pyridin-2-yl)morpholine]	350 nM	31 nM	160 nM
